Among the data in ChEMBL document CHEMBL1154687, “Binding ensemble profiling with photoaffinity labeling (BEProFL) approach: mapping the binding poses of HDAC8 inhibitors” (J Med Chem, 2009) are IC50 and Ki values, retold here.

This assay has as its target T1, Histone deacetylase 8 (Homo sapiens, UniProt Q9BY41).
T1 sequence (Q9BY41 whole entry): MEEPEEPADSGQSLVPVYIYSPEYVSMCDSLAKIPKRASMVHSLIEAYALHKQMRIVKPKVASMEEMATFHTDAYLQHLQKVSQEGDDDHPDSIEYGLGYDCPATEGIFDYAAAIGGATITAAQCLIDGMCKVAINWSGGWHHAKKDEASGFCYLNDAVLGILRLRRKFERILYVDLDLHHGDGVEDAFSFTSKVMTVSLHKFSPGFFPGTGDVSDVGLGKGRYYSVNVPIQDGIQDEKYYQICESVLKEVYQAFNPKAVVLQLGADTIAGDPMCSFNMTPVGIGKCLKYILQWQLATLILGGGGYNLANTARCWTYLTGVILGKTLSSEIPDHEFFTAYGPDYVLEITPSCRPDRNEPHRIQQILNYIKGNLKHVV
Description: Inhibition of human recombinant HDAC8 using fluorescent acetylated substrate.

In general, IC50 refers to the concentration at which inhibition is half-maximal. For orientation: Ki means the dissociation constant of the complex between target and ligand, obtained from inhibition or displacement.

Regarding `[N-]=[N+]=NCc1cc(COc2ccc(NC(=O)CCCCCCC(=O)NO)cc2)cc(N=[N+]=[N-])c1`, the IC50 was 7.34 µM and the Ki stood at 6.59 µM.

Take `[N-]=[N+]=Nc1ccc(-c2csc(NC(=O)CCCCCCC(=O)NO)n2)cc1`: the concentration for half-maximal inhibition (IC50) came out at 2.71 µM and the inhibition constant Ki was 2.43 µM.
